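Compound exposure: 48 hours, 5 concentrations, 96-well plates. GI50 = concentration required for 50% inhibition of growth. TGI is the concentration that stops growth completely.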
How the values were obtained:
Test in all cases: growth of human tumour cells (NCI), 48 h
RXF 393 renal = test system: RXF 393 renal
IGROV1 ovarian = test system: IGROV1 ovarian
HCT-116 colon = test system: HCT-116 colon
NCI-H23 lung = test system: NCI-H23 lung
COLO 205 colon = test system: COLO 205 colon
LOX IMVI melanoma = test system: LOX IMVI melanoma
SW-620 colon = test system: SW-620 colon
HOP-62 NSCLC = test system: HOP-62 NSCLC
MCF7 breast = test system: MCF7 breast
HOP-92 NSCLC = test system: HOP-92 NSCLC
A549 NSCLC = test system: A549 NSCLC
UACC-257 melanoma = test system: UACC-257 melanoma
CCRF-CEM leukemia = test system: CCRF-CEM leukemia
HCT-15 colon = test system: HCT-15 colon
SF-539 CNS = test system: SF-539 CNS
HS 578T breast = test system: HS 578T breast
MDA-MB-231 breast = test system: MDA-MB-231 breast
SK-MEL-28 melanoma = test system: SK-MEL-28 melanoma
U251 CNS = test system: U251 CNS
SF-295 CNS = test system: SF-295 CNS
SN12C renal = test system: SN12C renal
BT-549 breast = test system: BT-549 breast
M14 melanoma = test system: M14 melanoma
UACC-62 melanoma = test system: UACC-62 melanoma
ACHN renal = test system: ACHN renal
KM12 colon = test system: KM12 colon
SR leukemia = test system: SR leukemia
OVCAR-5 ovarian = test system: OVCAR-5 ovarian
SK-OV-3 ovarian = test system: SK-OV-3 ovarian
DU-145 prostate = test system: DU-145 prostate
NCI-H226 lung = test system: NCI-H226 lung
OVCAR-3 ovarian = test system: OVCAR-3 ovarian
NCI/ADR-RES ovarian = test system: NCI/ADR-RES ovarian
HCC-2998 colon = test system: HCC-2998 colon
PC-3 prostate = test system: PC-3 prostate
NCI-H460 lung = test system: NCI-H460 lung
SF-268 CNS = test system: SF-268 CNS
HL-60(TB) leukemia = test system: HL-60(TB) leukemia
SK-MEL-5 melanoma = test system: SK-MEL-5 melanoma
SK-MEL-2 melanoma = test system: SK-MEL-2 melanoma
NCI-H522 lung = test system: NCI-H522 lung
T-47D breast = test system: T-47D breast
CAKI-1 renal = test system: CAKI-1 renal
HT29 colon = test system: HT29 colon
A498 renal = test system: A498 renal
TK-10 renal = test system: TK-10 renal
SNB-75 CNS = test system: SNB-75 CNS
MALME-3M melanoma = test system: MALME-3M melanoma
MDA-MB-435 = test system: MDA-MB-435
OVCAR-4 ovarian = test system: OVCAR-4 ovarian
OVCAR-8 ovarian = test system: OVCAR-8 ovarian
K-562 leukemia = test system: K-562 leukemia
786-0 renal = test system: 786-0 renal
EKVX NSCLC = test system: EKVX NSCLC
MOLT-4 leukemia = test system: MOLT-4 leukemia
SNB-19 CNS = test system: SNB-19 CNS
UO-31 renal = test system: UO-31 renal
RPMI-8226 leukemia = test system: RPMI-8226 leukemia

Structure (SMILES): Nc1ncnc2c1c(-c1ccc(Oc3ccccc3)cc1)nn2CC1SSCC1O (stereo unspecified)
- GI50 (RXF 393 renal): 2.74 µM
- TGI (RXF 393 renal): 9.62 µM
- GI50 (IGROV1 ovarian): 2.44 µM
- TGI (IGROV1 ovarian): 8.31 µM
- GI50 (HCT-116 colon): 0.59 µM
- TGI (HCT-116 colon): 4.65 µM
- GI50 (NCI-H23 lung): 1.7 µM
- TGI (NCI-H23 lung): 7.97 µM
- GI50 (COLO 205 colon): 1.25 µM
- TGI (COLO 205 colon): 5.5 µM
- GI50 (LOX IMVI melanoma): 0.335 µM
- TGI (LOX IMVI melanoma): 4.96 µM
- GI50 (SW-620 colon): 1.58 µM
- TGI (SW-620 colon): 32.5 µM
- GI50 (HOP-62 NSCLC): 3.6 µM
- TGI (HOP-62 NSCLC): 11.1 µM
- GI50 (MCF7 breast): 1.44 µM
- TGI (MCF7 breast): 7.85 µM
- GI50 (HOP-92 NSCLC): 1.72 µM
- TGI (HOP-92 NSCLC): 8.23 µM
- GI50 (A549 NSCLC): 3.8 µM
- TGI (A549 NSCLC): 9.17 µM
- GI50 (UACC-257 melanoma): 2.07 µM
- TGI (UACC-257 melanoma): 10.6 µM
- GI50 (CCRF-CEM leukemia): 0.138 µM
- TGI (CCRF-CEM leukemia): 32.5 µM
- GI50 (HCT-15 colon): 3.03 µM
- TGI (HCT-15 colon): 9.88 µM
- GI50 (SF-539 CNS): 1.05 µM
- TGI (SF-539 CNS): 8.19 µM
- GI50 (HS 578T breast): 5.84 µM
- TGI (HS 578T breast): 19.3 µM
- GI50 (MDA-MB-231 breast): 5.36 µM
- TGI (MDA-MB-231 breast): 16.8 µM
- GI50 (SK-MEL-28 melanoma): 0.131 µM
- TGI (SK-MEL-28 melanoma): 0.92 µM
- GI50 (U251 CNS): 4.31 µM
- TGI (U251 CNS): 9.66 µM
- GI50 (SF-295 CNS): 6.36 µM
- TGI (SF-295 CNS): 15.8 µM
- GI50 (SN12C renal): 4.97 µM
- TGI (SN12C renal): 15.2 µM
- GI50 (BT-549 breast): 7.11 µM
- TGI (BT-549 breast): 17.1 µM
- GI50 (M14 melanoma): 0.0609 µM
- TGI (M14 melanoma): 0.121 µM
- GI50 (UACC-62 melanoma): 0.63 µM
- TGI (UACC-62 melanoma): 1.33 µM
- GI50 (ACHN renal): 4.27 µM
- TGI (ACHN renal): 14.9 µM
- GI50 (KM12 colon): 0.324 µM
- TGI (KM12 colon): 7.67 µM
- GI50 (SR leukemia): 0.251 µM
- TGI (SR leukemia): 2.11 µM
- GI50 (OVCAR-5 ovarian): 7.2 µM
- TGI (OVCAR-5 ovarian): 28.8 µM
- GI50 (SK-OV-3 ovarian): 1.35 µM
- TGI (SK-OV-3 ovarian): 7.05 µM
- GI50 (DU-145 prostate): 4.15 µM
- TGI (DU-145 prostate): 9.01 µM
- GI50 (NCI-H226 lung): 3.7 µM
- TGI (NCI-H226 lung): 9.91 µM
- GI50 (OVCAR-3 ovarian): 0.659 µM
- TGI (OVCAR-3 ovarian): 1.62 µM
- GI50 (NCI/ADR-RES ovarian): 6.61 µM
- TGI (NCI/ADR-RES ovarian): 17.6 µM
- GI50 (HCC-2998 colon): 6.75 µM
- TGI (HCC-2998 colon): 20.5 µM
- GI50 (PC-3 prostate): 6.23 µM
- TGI (PC-3 prostate): 14.9 µM
- GI50 (NCI-H460 lung): 0.111 µM
- TGI (NCI-H460 lung): 7.97 µM
- GI50 (SF-268 CNS): 0.126 µM
- TGI (SF-268 CNS): 7.01 µM
- GI50 (HL-60(TB) leukemia): 1.49 µM
- TGI (HL-60(TB) leukemia): 7.99 µM
- GI50 (SK-MEL-5 melanoma): 1.29 µM
- TGI (SK-MEL-5 melanoma): 5.07 µM
- GI50 (SK-MEL-2 melanoma): 0.825 µM
- TGI (SK-MEL-2 melanoma): 2.15 µM
- GI50 (NCI-H522 lung): 2.62 µM
- TGI (NCI-H522 lung): 9.49 µM
- GI50 (T-47D breast): 0.653 µM
- TGI (T-47D breast): 1.85 µM
- GI50 (CAKI-1 renal): 3.71 µM
- TGI (CAKI-1 renal): 12.7 µM
- GI50 (HT29 colon): 1.27 µM
- TGI (HT29 colon): 6.36 µM
- GI50 (A498 renal): 5.1 µM
- TGI (A498 renal): 11.6 µM
- GI50 (TK-10 renal): 1.91 µM
- TGI (TK-10 renal): 6.34 µM
- GI50 (SNB-75 CNS): 5.79 µM
- TGI (SNB-75 CNS): 14.9 µM
- GI50 (MALME-3M melanoma): 0.847 µM
- TGI (MALME-3M melanoma): 3.78 µM
- GI50 (MDA-MB-435): 0.121 µM
- TGI (MDA-MB-435): 0.47 µM
- GI50 (OVCAR-4 ovarian): 2.2 µM
- TGI (OVCAR-4 ovarian): 22.1 µM
- GI50 (OVCAR-8 ovarian): 7.51 µM
- TGI (OVCAR-8 ovarian): 23.3 µM
- GI50 (K-562 leukemia): 0.788 µM
- TGI (K-562 leukemia): 7.39 µM
- GI50 (786-0 renal): 4.86 µM
- TGI (786-0 renal): 11.2 µM
- GI50 (EKVX NSCLC): 1.04 µM
- TGI (EKVX NSCLC): 6.25 µM
- GI50 (MOLT-4 leukemia): 0.124 µM
- TGI (MOLT-4 leukemia): 0.621 µM
- GI50 (SNB-19 CNS): 5.51 µM
- TGI (SNB-19 CNS): 13 µM
- GI50 (UO-31 renal): 1.22 µM
- TGI (UO-31 renal): 5.88 µM
- GI50 (RPMI-8226 leukemia): 5.05 µM
- TGI (RPMI-8226 leukemia): 21.3 µM
